Measurements reported in ChEMBL document CHEMBL3507680, “University of Dundee, Gates Library screen for HepG2 cell viability”.

Assay: Human HepG2 cell viability assay in 384 well format
Type: toxicity, cell-based
Parameters: dose 125 nL, time 70.5 hour; concentration not given beside the values
Conditions: HepG2 cells, read-out: Inhibition

Row | SMILES | cytotoxicity at 70.5 h
1 | Cc1ccccc1CC(C)(C)NC(=O)c1cccc(OCC(N)=O)c1 | -4.51%
2 | Cn1cc(C(=O)NCc2cncc3c2CCNC3)cn1 | 23.2%
3 | CC(C)CN1C[C@@H](C(=O)O)C[C@@H](C(=O)NCc2ccncc2)C1 | -2.12%
4 | Cc1cnc(NC(=O)c2csc(NC3CCCC3)n2)s1 | 43.8%
5 | CS(=O)(=O)c1ccc(CN2CCCCC2c2cccc(F)c2)cc1 (configuration not stated) | -9.66%
6 | Cc1c(Br)cccc1NC(=O)N(C)CCO | -14.7%
7 | COCC(NC(=O)NCc1sccc1C)c1ccco1 (configuration not stated) | 1.36%
8 | Cc1noc(C)c1CN1CCn2c(COC(C)C)nnc2C1 | -10.8%
9 | CN1CCN(Cc2ccncc2)C(=O)C12CCN(c1nccs1)CC2 | -2.86%
10 | O=C1CSC(c2ccsc2)c2sccc2N1 (configuration not stated) | -18.3%
11 | CC(=O)Nc1ccc(F)c(S(=O)(=O)NC(C)(C)C)c1 | -6.2%
12 | CS(=O)(=O)CCN(CC1CCCO1)C1CCCC1 (configuration not stated) | 19.5%
13 | O=C(CC1CC2(CCN(CC3CC3)CC2)c2ccccc21)NC1CCC1 (configuration not stated) | -2.68%
14 | CC(=O)Nc1ccc(/C=C/c2ncc(C(=O)O)s2)cc1 | -1.46%
15 | CCc1nnsc1C(=O)NCCC1CN(C(C)C)CCO1 (configuration not stated) | -7.17%
16 | CN(C)S(=O)(=O)N1CCC(c2ccnc(Nc3ccccn3)n2)C1 (configuration not stated) | -0.703%
17 | Cc1occc1C(=O)N1CCCN(Cc2nccn2C)CC1 | -8.79%
18 | CC(C)c1nn(C)c(N(C)C)c1CNCc1cccnc1 | -1.06%
19 | COC(=O)CCN1CCCC1c1cccc2c1OCCO2 (configuration not stated) | -6.05%
20 | Cc1nc(C(C)C)ncc1C(=O)N1CCCC(N2CCCC2)C1 (configuration not stated) | 6.69%
21 | COCc1noc(C2(c3ccc(Cl)cc3)CCOCC2)n1 | -6.8%
22 | COCCNC(=O)Cn1cc(OCc2ccccc2)c(=O)cc1CO | -15.3%
23 | O=C(c1cc(-c2ccccc2)nc2onc(C3CC3)c12)N1CC[C@H](O)C1 | -11.3%
24 | O=C([C@H]1COC[C@H]2CN(C3CCCC3)C[C@H]21)N1CCOCC1 | -9.13%

Row | SMILES | cytotoxicity at 70.5 h
25 | c1ccc(CCNc2cccc(C3CCCNC3)n2)cc1 (configuration not stated) | 6.58%
26 | N#Cc1ccc(SCCC(=O)O)cc1 | -7.41%
27 | Cc1cc(NC(C)c2n[nH]c(C)n2)n2nc(C)c(C)c2n1 (configuration not stated) | 20%
28 | CCc1cc(NCC(O)CN2CCCCC2)ncn1 (configuration not stated) | -4.61%
29 | CC(C)(C(=O)N[C@@H]1CCC[C@@H](O)[C@@H]1O)c1cccc(F)c1 | -4.01%
30 | Cc1ccc(C(=O)N2CCN(CC(O)c3ccc(F)cc3)CC2)s1 (configuration not stated) | -6.7%
31 | Cc1ccc(NC(=O)Nc2c[nH]c(=O)[nH]c2=O)c(Cl)c1 | -8.13%
32 | CCC(=O)N1CCN(C(=O)Nc2ccccc2-c2cccs2)CC1 | -5.63%
33 | Cc1ccc(N2C[C@H]3CCC[C@@H](CN4CCOCC4)[C@H]3C2)nn1 | -1.56%
34 | COc1ccc(C(=O)N2CCC(Oc3cccc(C)c3)(C(=O)O)CC2)o1 | 5.99%
35 | Cc1ccc(F)c(NC(=O)NCCCn2nc3ccccn3c2=O)c1 | -3.3%
36 | CCc1nc(CN(C)CC2CCN(CCO)CC2)no1 | -9.2%
37 | Cn1cccc1-c1nnc(C2(c3ccc4c(c3)OCO4)CCOCC2)o1 | -9.42%
38 | CC(=O)N1CCc2[nH]nc(C(=O)N3CCOCC3)c2C1 | -4.57%
39 | Cn1nc(CN2CCCC2)c2c1CN(C(=O)c1cccnc1)CC2 | -2.33%
40 | N#Cc1c(F)cccc1NCCCOCC1CCOC1 (configuration not stated) | -0.771%
41 | CC(=O)NCc1ccc(S(=O)(=O)NC(=O)c2ccc3c(c2)COC3)s1 | 0.101%
42 | Nc1cccnc1N1CCCCCC1 | 2.46%
43 | COC(=O)C(O)C1CCN(CCc2ccccn2)CC1 (configuration not stated) | -1.57%
44 | CS(=O)(=O)c1ccc(NC(=O)CSC(F)(F)F)cn1 | 20.8%
45 | CC(NCC1(N(C)C)CCOCC1)c1ccc(SC(F)F)cc1 (configuration not stated) | 2.6%
46 | CC[C@H](C)[C@H](NC(=O)c1cccc(-n2cnnn2)c1)C(=O)OC | -11%
47 | Cn1cc(CNCC2(N3CCCCC3)Cc3ccccc3C2)cn1 | -4.33%
48 | CCc1cc(CNC(=O)Nc2cc(F)ccc2N2CCCCC2)on1 | -2.62%

Row | SMILES | cytotoxicity at 70.5 h
49 | CC(C)N1CCC(c2nccnc2Nc2ncccn2)CC1 | -4.91%
50 | CCC(=O)NCc1ccccc1Cn1ccnc1 | -2.6%
51 | Cc1nn(C)c(N(C)C)c1CNCc1ccccc1CO | -0.166%
52 | CCS(=O)(=O)N1CCc2nc(N3CCOCC3)nc(N(C)C)c2CC1 | -7.6%
53 | Cc1cc(C)cc(OCCNC(=O)C(C)Sc2nncn2C)c1 (configuration not stated) | -10.3%
54 | COc1ccc(-n2cc(CNC(=O)c3cc[nH]n3)nn2)cc1 | -3.5%
55 | Cc1ccc(-c2nnn(CCN3C(=O)CCC3=O)n2)cc1 | -3.33%
56 | COCc1cnc2n1CCN(C(=O)c1cc3cc(Cl)ccc3o1)C2C (configuration not stated) | 18.3%
57 | CN(C)S(=O)(=O)c1ccc(-c2nc(C#N)c(NC(C)(C)C)o2)o1 | -8.34%
58 | CNC(=O)[C@@H](C1CCCCC1)N1CCC[C@H]1C(=O)NCCN1CCCC1 | 3.4%
59 | Cc1cc(C)n(CC2CCCN2CC(=O)N(C)C)n1 (configuration not stated) | -11.4%
60 | Cc1nn(C)cc1-c1cc(C(F)F)n2nc(CCC(=O)O)nc2n1 | -0.99%
61 | CCN(CC)C(=O)CSc1sc2c(O)cc(=O)[nH]c2c1C(N)=O | -14.3%
62 | Cc1ccnn1CC(=O)N(C)Cc1cnn(-c2ccccc2)c1 | -1.98%
63 | CCOC(=O)C1(Cc2cccc(Cl)c2)CCCN(Cc2ncc[nH]2)C1 (configuration not stated) | 0.345%
64 | O=S(=O)(Nc1cnn(C2CCOCC2)c1)c1ccc(Br)cc1 | -5.21%
65 | Fc1cnc(N2CCC3(COCc4cnc(NCC5CC5)nc43)C2)nc1 (configuration not stated) | -6.29%
66 | CSCCN1CCN(c2nc(N)ncc2C)CC1 | 21.4%
67 | Cn1c2ncccc2c(=O)n1CC(=O)NCCC1=CCCCC1 | -2.08%
68 | Cc1cc2c(cc1CNC(Cc1cccs1)c1nccs1)OCO2 (configuration not stated) | 1.05%
69 | CCN(CC)C(=O)CS(=O)(=O)c1cc(OC)c(OC)cc1C | -9.5%
70 | COc1cccc(-c2cc(NCc3nc(C)cs3)n(C)n2)c1 | -9.85%
71 | O=C1N(Cc2ccccn2)C[C@H]2CN(C3CCC3)CCN12 | 2.38%
72 | CCC(=O)N1CCN(c2cc(N(C)C)cnn2)CC1 | -10.5%

Row | SMILES | cytotoxicity at 70.5 h
73 | CCc1noc(CN(CC(=O)N2CCCCC2)c2cccc(C)c2)n1 | -3.01%
74 | Cc1ccc2[nH]c(C3CCN(C)CC3)nc2c1 | 12.7%
75 | CC1CCN(c2ccc(NC(=O)CCn3cccn3)cc2)CC1 | -9.93%
76 | Cc1nc(N2CCCC2)ncc1-c1cc(O)nc(N2CCOCC2)n1 | -4.64%
77 | Fc1ccc(OCCNC2CCN(Cc3ccncc3)CC2)c(F)c1 | 12.1%
78 | CCC(CO)N(C/C(C)=C/c1ccco1)Cc1ccco1 (configuration not stated) | -3.88%
79 | Cn1cc(-c2cnc(-c3ccnn3C)nc2)cc1C(=O)NC1CC1 | -4.34%
80 | CC(C)C(NC(=O)c1cnc(N2CCOCC2)nc1)c1cccs1 (configuration not stated) | 7.3%
81 | COCCNC(=O)c1nc(-c2ccc3cc[nH]c3c2)no1 | -17.1%
82 | C1CC(NCC2CC2)CN(Cc2noc(C3CC3)n2)C1 (configuration not stated) | -15.4%
83 | Cc1c(C(=O)NCCC(C)C)nnn1-c1cccc2c1CCN(C)C2 | -5.25%
84 | COc1cc(-c2n[nH]c(CCN)n2)cc(OC)c1OC | 22.8%
85 | COc1ccc(C2=Nn3c(CCCN)nnc3-c3ccccc3C2)cc1 | 4.99%
86 | CC(C)c1nc(CN(C)C(=O)CNS(=O)(=O)c2cccs2)cs1 | -6.67%
87 | CCOc1ccc(OCC(O)CN2CCN(S(C)(=O)=O)CC2)cc1 (configuration not stated) | 0.695%
88 | CC(C)c1cc(C(=O)N(c2ccc(F)cn2)C2CCOCC2)nn1C | 3.21%
89 | CCOCCC(=O)N1CCc2cccc(S(=O)(=O)N3CCOCC3)c2C1 | -9.19%
90 | CCN1CCN(C)C(=O)C12CCN(Cc1csc(C)n1)CC2 | -8.47%
91 | O=C(NCCc1nncn1C1CC1)c1cc2ccccn2c1 | -10.9%
92 | O=S(=O)(c1cccnc1)N1CCN(CC(O)c2ccccc2)CC1 (configuration not stated) | -3.21%
93 | O=C(NCC1CC1)N1CCN(Cc2ccc3c(c2)OCCO3)CC1 | 2.86%
94 | CCOCCCC(=O)NCC(c1ccccc1)N1CCc2sccc2C1 (configuration not stated) | 16.8%
95 | CCC1CN(Cc2nnc(C3CC3)o2)CCC(=O)N1Cc1ccccc1 (configuration not stated) | 20.4%
96 | CN1CCC(c2cnc(NCc3nccn3C)cn2)CC1 | 17.9%

Row | SMILES | cytotoxicity at 70.5 h
97 | O=C(c1cc(COc2ccc3c(c2)OCO3)[nH]n1)N1CCCCO1 | 20.1%
98 | Cn1ccnc1SCC(=O)NCc1ccc2c(c1)CCC(=O)N2 | 2.79%
99 | CCn1c(CN(C)C)nnc1C1CCN(Cc2ccc(Cl)c(F)c2)CC1 | -6.05%
100 | CS(=O)(=O)N1CCCC(C(=O)Nc2cnn(Cc3ccc(Cl)cc3)c2)C1 (configuration not stated) | 0.541%
101 | COC(=O)C1CCN(C(=O)c2nnc3ccc(Cl)cc3n2)CC1 | -7.04%
102 | Cc1nsc(C(=O)NCCc2cccs2)n1 | -5.79%
103 | CC(C)NC(=O)CN(C1CC1)C(C)C1CC1 (configuration not stated) | -3.55%
104 | CCOCCC(=O)N(Cc1ccncc1)C(C)CC (configuration not stated) | 20.8%
105 | CCN(CC)CC(=O)N1CCCC1Cn1cccn1 (configuration not stated) | -4.89%
106 | CS(=O)(=O)c1ccc(OCCNCc2ccc(F)cc2)cc1 | -1.74%
107 | O=C(NCCC1CCN(CC(F)(F)F)CC1)C1COCCO1 (configuration not stated) | 0.242%
108 | Cn1ccnc1-c1nccn1C[C@@H]1CCCN2CCCC[C@H]12 | 2.02%
109 | CN(CC(=O)Nc1ccncc1)C1CCCN(c2cccnn2)C1 (configuration not stated) | -3.61%
110 | CNC(=O)c1cccc(CCNS(C)(=O)=O)c1 | -2.35%
111 | COCC(=O)Nc1ccc(-c2noc([C@@H]3CCCN3CC(C)C)n2)cn1 | 10.2%
112 | Cc1cc(C)c2cc(CNCCCN3CCOCC3)c(=O)[nH]c2c1 | -7.01%
113 | COCc1cnc2n1CCN(Cc1cccnc1)C2C (configuration not stated) | -17.6%
114 | O=C(NCCSc1ccccc1)[C@H]1CNC[C@@H](C(=O)N2CCOCC2)C1 | -7.93%
115 | CCc1cc(N(C)Cc2noc(CC(C)C)n2)ncn1 | 21.2%
116 | Cc1nc(-c2cccc(N3CCC(NC4CCOCC4)CC3)c2)cs1 | -3.92%
117 | COc1ccc2c(c1)OCC(CNC(=O)c1ccc(=O)n(C)c1)C2 (configuration not stated) | -10%
